According to ChEMBL document CHEMBL3112450, “Synthesis and in vitro antitumor evaluation of primary amine substituted quinazoline linked benzimidazole” (Bioorg Med Chem Lett, 2014):

What was measured:
Format in all cases: functional
HL-60(TB) = experiment: Cytotoxicity against human HL-60(TB) cells assessed as cell growth at 10^-5 M after 48 hrs by SRB assay; settings: HL-60, 48 h, read-out: Activity
CCRF-CEM [1] = experiment: Cytotoxicity against human CCRF-CEM cells assessed as cell growth at 10^-5 M after 48 hrs by SRB assay; settings: read-out: Activity
HCC 2998 = experiment: Cytotoxicity against human HCC2998 cells assessed as cell growth at 10^-5 M after 48 hrs by SRB assay; settings: HCC 2998, 48 h, read-out: Activity
NCI-H23 = experiment: Cytotoxicity against human NCI-H23 cells assessed as cell growth at 10^-5 M after 48 hrs by SRB assay; settings: NCI-H23, 48 h, read-out: Activity
HOP-92 [2] = experiment: Cytotoxicity against human HOP92 cells assessed as cell growth at 10^-5 M after 48 hrs by SRB assay; settings: HOP-92, 48 h, read-out: Activity
A498 = experiment: Cytotoxicity against human A498 cells assessed as cell growth at 10^-5 M after 48 hrs by SRB assay; settings: A498, 48 h, read-out: Activity
MCF7 = experiment: Cytotoxicity against human MCF7 cells assessed as cell growth at 10^-5 M after 48 hrs by SRB assay; settings: MCF7, 48 h, read-out: Activity
SR = experiment: Cytotoxicity against human SR cells assessed as cell growth at 10^-5 M after 48 hrs by SRB assay; settings: read-out: Activity
NCI-H522 = experiment: Cytotoxicity against human NCI-H522 cells assessed as cell growth at 10^-5 M after 48 hrs by SRB assay; settings: NCI-H522, 48 h, read-out: Activity
IGROV-1 = experiment: Cytotoxicity against human IGROV1 cells assessed as cell growth at 10^-5 M after 48 hrs by SRB assay; settings: IGROV-1, 48 h, read-out: Activity
SF-539 = experiment: Cytotoxicity against human SF539 cells assessed as cell growth at 10^-5 M after 48 hrs by SRB assay; settings: SF-539, 48 h, read-out: Activity
M14 = experiment: Cytotoxicity against human M14 cells assessed as cell growth at 10^-5 M after 48 hrs by SRB assay; settings: M14, 48 h, read-out: Activity
T47D [3] = experiment: Cytotoxicity against human T47D cells assessed as cell growth at 10^-5 M after 48 hrs by SRB assay; settings: read-out: Activity
OVCAR-8 = experiment: Cytotoxicity against human OVCAR8 cells assessed as cell growth at 10^-5 M after 48 hrs by SRB assay; settings: OVCAR-8, 48 h, read-out: Activity
[4] = Cytotoxicity against human OVCAR5 cells assessed as cell growth at 10^-5 M after 48 hrs by SRB assay; settings: OVCAR-5, 48 h, read-out: Activity
NCI-H460 = experiment: Cytotoxicity against human NCI-H460 cells assessed as cell growth at 10^-5 M after 48 hrs by SRB assay; settings: NCI-H460, 48 h, read-out: Activity
COLO 205 = experiment: Cytotoxicity against human COLO205 cells assessed as cell growth at 10^-5 M after 48 hrs by SRB assay; settings: COLO 205, 48 h, read-out: Activity
SK-MEL-5 = experiment: Cytotoxicity against human SK-MEL-5 cells assessed as cell growth at 10^-5 M after 48 hrs by SRB assay; settings: SK-MEL-5, 48 h, read-out: Activity
A549 = experiment: Cytotoxicity against human A549 cells assessed as cell growth at 10^-5 M after 48 hrs by SRB assay; settings: A549, 48 h, read-out: Activity
[5] = Cytotoxicity against human NCI-ADR-RES cells assessed as cell growth at 10^-5 M after 48 hrs by SRB assay; settings: read-out: Activity
OVCAR-3 = experiment: Cytotoxicity against human OVCAR3 cells assessed as cell growth at 10^-5 M after 48 hrs by SRB assay; settings: OVCAR-3, 48 h, read-out: Activity
SF-295 [6] = experiment: Cytotoxicity against human SF295 cells assessed as cell growth at 10^-5 M after 48 hrs by SRB assay; settings: SF-295, 48 h, read-out: Activity
HT-29 = experiment: Cytotoxicity against human HT-29 cells assessed as cell growth at 10^-4 M after 48 hrs by SRB assay; settings: HT-29, 48 h, read-out: Activity
CCRF-CEM [7] = experiment: Cytotoxicity against human CCRF-CEM cells assessed as cell growth at 10^-8 M after 48 hrs by SRB assay; settings: read-out: Activity
786-0 = experiment: Cytotoxicity against human 786-0 cells assessed as cell growth at 10^-4 M after 48 hrs by SRB assay; settings: 786-0, 48 h, read-out: Activity
HOP-92 [8] = experiment: Cytotoxicity against human HOP92 cells assessed as cell growth at 10^-7 M after 48 hrs by SRB assay; settings: HOP-92, 48 h, read-out: Activity
SK-MEL-2 [9] = experiment: Cytotoxicity against human SK-MEL-2 cells assessed as cell growth at 10^-6 M after 48 hrs by SRB assay; settings: SK-MEL-2, 48 h, read-out: Activity
[10] = Cytotoxicity against human UO31 cells assessed as cell growth at 10^-7 M after 48 hrs by SRB assay; settings: UO-31, 48 h, read-out: Activity
SW-620 = experiment: Cytotoxicity against human SW620 cells assessed as cell growth at 10^-6 M after 48 hrs by SRB assay; settings: SW-620, 48 h, read-out: Activity
T47D [11] = experiment: Cytotoxicity against human T47D cells assessed as cell growth at 10^-6 M after 48 hrs by SRB assay; settings: read-out: Activity
BT-549 = experiment: Cytotoxicity against human BT549 cells assessed as cell growth at 10^-8 M after 48 hrs by SRB assay; settings: BT-549, 48 h, read-out: Activity
SNB-19 = experiment: Cytotoxicity against human SNB19 cells assessed as cell growth at 10^-8 M after 48 hrs by SRB assay; settings: SNB-19, 48 h, read-out: Activity
[12] = Cytotoxicity against human UO31 cells after 48 hrs by SRB assay; settings: UO-31, 48 h
MOLT-4 = experiment: Cytotoxicity against human MOLT4 cells assessed as cell growth at 10^-8 M after 48 hrs by SRB assay; settings: MOLT-4, 48 h, read-out: Activity
SK-MEL-28 = experiment: Cytotoxicity against human SK-MEL-28 cells assessed as cell growth at 10^-4 M after 48 hrs by SRB assay; settings: SK-MEL-28, 48 h, read-out: Activity
SK-MEL-2 [13] = experiment: Cytotoxicity against human SK-MEL-2 cells after 48 hrs by SRB assay; settings: SK-MEL-2, 48 h
SF-295 [14] = experiment: Cytotoxicity against human SF295 cells assessed as cell growth at 10^-8 M after 48 hrs by SRB assay; settings: SF-295, 48 h, read-out: Activity
RPMI-8226 = experiment: Cytotoxicity against human RPMI8226 cells assessed as growth inhibition at 10 uM after 48 hrs by SRB assay; settings: RPMI-8226, 48 h, read-out: GI

| SMILES | growth at 10 µM (HL-60(TB)) [%] | growth at 10 µM (CCRF-CEM [1]) [%] | growth at 10 µM (HCC 2998) [%] | growth at 10 µM (NCI-H23) [%] | growth at 10 µM (HOP-92 [2]) [%] | growth at 10 µM (A498) [%] | growth at 10 µM (MCF7) [%] | growth at 10 µM (SR) [%] | growth at 10 µM (NCI-H522) [%] | growth at 10 µM (IGROV-1) [%] | growth at 10 µM (SF-539) [%] | growth at 10 µM (M14) [%] | growth at 10 µM (T47D [3]) [%] | growth at 10 µM (OVCAR-8) [%] | growth at 10 µM [4] [%] | growth at 10 µM (NCI-H460) [%] | growth at 10 µM (COLO 205) [%] | growth at 10 µM (SK-MEL-5) [%] | growth at 10 µM (A549) [%] | growth at 10 µM [5] [%] | also measured |
| --- | --- | --- | --- | --- | --- | --- | --- | --- | --- | --- | --- | --- | --- | --- | --- | --- | --- | --- | --- | --- | --- |
| C=CCn1c(C)nc2cc(Nc3nc(Nc4ccc5nc(C)n(CC=C)c5c4)nc4ccccc34)ccc21 | 84 | 94.8 | 104 | 94.2 | 79.8 | 125 | 92.4 | 106 | 99.1 | 102 | 98.6 | 109 | 96 | 98.9 | 107 | 117 | 108 | 99.7 | 96.3 | 101 | growth at 10 µM (OVCAR-3): 108% |
| C=CCn1c(C)nc2ccc(Nc3nc(NCCO)nc4ccccc34)cc21 | 114 | 88.5 | 110 | 92.7 | 73.9 | 78.3 | 93.7 | 104 | 101 | 90.1 | 104 | 111 | 95.8 | 99 | 107 | 103 | 106 | 96.5 | 99.9 | 106 | growth at 10 µM (SF-295 [6]): 146%; growth at 10 µM (OVCAR-3): 98.3% |
| C=CCn1c(C)nc2ccc(Nc3nc(Nc4ccc5nc(C)n(CC=C)c5c4)c4ccccc4n3)cc21 | -71 | -20.8 | -100 | -89 | -80 | -91 | -100 | -57.2 | -94 | -87 | -96 | -95 | -91 | -76 | -98 | -74 | -100 | -98 | -90 | -25 | growth at 100 µM (HT-29): -16%; growth at 0.01 µM (CCRF-CEM [7]): 97%; growth at 100 µM (786-0): -18%; growth at 0.1 µM (HOP-92 [8]): 86%; growth at 1 µM (SK-MEL-2 [9]): 107%; growth at 0.1 µM [10]: 80%; growth at 1 µM (SW-620): 80%; growth at 1 µM (T47D [11]): 80%; growth at 0.01 µM (BT-549): 99%; growth at 0.01 µM (SNB-19): 92%; GI50 [12]: 1360 nM; TGI [12]: 2880 nM; growth at 0.01 µM (MOLT-4): 101%; growth at 100 µM (SK-MEL-28): -39%; GI50 (SK-MEL-2 [13]): 1960 nM; TGI (SK-MEL-2 [13]): 3540 nM; growth at 10 µM (SF-295 [6]): -80%; growth at 0.01 µM (SF-295 [14]): 94%; growth at 10 µM (OVCAR-3): -99% |
| C=CCn1c(C)nc2cc(Nc3nc(NCCO)nc4ccccc34)ccc21 | 93.8 | 81.9 | 89 | 81.9 | 57.9 | 55.4 | 72.2 | 68.8 | 88.1 | 95.3 | 94.8 | 93.3 | 69 | 73.6 | 92.2 | 96 | 41.9 | 75.4 | 92.3 | 97.7 | inhibition of growth at 10 µM (RPMI-8226): 30%; growth at 10 µM (SF-295 [6]): 90.6%; growth at 10 µM (OVCAR-3): 94.8% |
